Assays:
Staphylococcus aureus = experiment: Antibacterial activity against Staphylococcus aureus MTCC 96 assessed as growth inhibition by broth microdilution method; format: functional
Candida albicans = experiment: Antifungal activity against Candida albicans MTCC 227 assessed as growth inhibition by broth microdilution method; format: functional
[1] = test system: Mycobacterium tuberculosis; experiment: Antituberculosis activity against Mycobacterium tuberculosis H37Rv assessed as growth inhibition at 250 ug/ml after 12 to 28 days by Lowenstein-Jensen method relative to control; format: functional; details: read-out: GI
Bacillus subtilis = experiment: Antibacterial activity against Bacillus subtilis MTCC 441 assessed as growth inhibition by broth microdilution method; format: functional
Salmonella typhi = experiment: Antibacterial activity against Salmonella typhi MTCC 98 assessed as growth inhibition by broth microdilution method; format: functional, Salmonella enterica subsp. enterica serovar Typhi; details: Salmonella enterica
Trichophyton rubrum = experiment: Antifungal activity against Trichophyton rubrum MTCC 296 assessed as growth inhibition by broth microdilution method; format: functional
Clostridium tetani = experiment: Antibacterial activity against Clostridium tetani MTCC 449 assessed as growth inhibition by broth microdilution method; format: functional
Escherichia coli = experiment: Antibacterial activity against Escherichia coli MTCC 443 assessed as growth inhibition by broth microdilution method; format: functional
Pseudomonas aeruginosa = experiment: Antibacterial activity against Pseudomonas aeruginosa MTCC 1688 assessed as growth inhibition by broth microdilution method; format: functional

Compound	MIC (Staphylococcus aureus)	MIC (Candida albicans)	inhibition of growth at 250 µg/mL [1]	MIC (Bacillus subtilis)	MIC (Salmonella typhi)	MIC (Trichophyton rubrum)	MIC (Clostridium tetani)	MIC (Escherichia coli)	MIC (Pseudomonas aeruginosa)
C=CCn1c(=O)c(C2C(C(=O)OC)=C(N)N(NC(=O)c3ccncc3)C3=C2C(=O)CCC3)cc2cc(Cl)ccc21 (stereo unspecified)	250 mg/L	1000 mg/L	89%	500 mg/L	200 mg/L	1000 mg/L	200 mg/L	250 mg/L	500 mg/L
C=CCn1c(=O)c(C2C(C(=O)OC)=C(N)N(NC(=O)c3ccncc3)C3=C2C(=O)CCC3)cc2ccccc21 (stereo unspecified)	125 mg/L	500 mg/L	74%	100 mg/L	250 mg/L	500 mg/L	125 mg/L	500 mg/L	50 mg/L
C=CCn1c(=O)c(C2C(C(=O)OC(C)C)=C(N)N(NC(=O)c3ccncc3)C3=C2C(=O)CC(C)(C)C3)cc2ccccc21 (stereo unspecified)	500 mg/L	1000 mg/L	78%	500 mg/L	25 mg/L	250 mg/L	500 mg/L	200 mg/L	250 mg/L
C=CCn1c(=O)c(C2C(C(=O)OCC)=C(N)N(NC(=O)c3ccncc3)C3=C2C(=O)CC(C)(C)C3)cc2ccccc21 (stereo unspecified)	250 mg/L	250 mg/L	84%	500 mg/L	100 mg/L	500 mg/L	500 mg/L	50 mg/L	500 mg/L
COC1=CC(=O)C[C@@H](C)[C@]12Oc1c(Cl)c(OC)cc(OC)c1C2=O [GRISEOFULVIN]	–	500 mg/L	–	–	–	100 mg/L	–	–	–
C=CCn1c(=O)c(C2C(C(=O)OCC)=C(N)N(NC(=O)c3ccncc3)C3=C2C(=O)CC(C)(C)C3)cc2cc(Cl)ccc21 (stereo unspecified)	250 mg/L	1000 mg/L	56%	200 mg/L	200 mg/L	500 mg/L	250 mg/L	200 mg/L	100 mg/L
C=CCn1c(=O)c(C2C(C(=O)OCC)=C(N)N(NC(=O)c3ccncc3)C3=C2C(=O)CCC3)cc2ccccc21 (stereo unspecified)	250 mg/L	500 mg/L	51%	500 mg/L	250 mg/L	> 1000 mg/L	250 mg/L	500 mg/L	500 mg/L
C=CCn1c(=O)c(C2C(C(=O)OC(C)C)=C(N)N(NC(=O)c3ccncc3)C3=C2C(=O)CCC3)cc2ccccc21 (stereo unspecified)	500 mg/L	1000 mg/L	65%	250 mg/L	125 mg/L	500 mg/L	500 mg/L	100 mg/L	500 mg/L
C=CCn1c(=O)c(C2C(C(=O)OCC)=C(N)N(NC(=O)c3ccncc3)C3=C2C(=O)CCC3)cc2cc(C)ccc21 (stereo unspecified)	100 mg/L	500 mg/L	23%	250 mg/L	500 mg/L	100 mg/L	62.5 mg/L	500 mg/L	250 mg/L
C=CCn1c(=O)c(C2C(C(=O)OCC)=C(N)N(NC(=O)c3ccncc3)C3=C2C(=O)CCC3)cc2cc(Cl)ccc21 (stereo unspecified)	100 mg/L	250 mg/L	87%	250 mg/L	250 mg/L	1000 mg/L	125 mg/L	100 mg/L	500 mg/L
CC1(C)S[C@@H]2[C@H](NC(=O)[C@H](N)c3ccccc3)C(=O)N2[C@H]1C(=O)O [AMPICILLIN]	250 mg/L	–	–	250 mg/L	100 mg/L	–	250 mg/L	100 mg/L	–
C=CCn1c(=O)c(C2C(C(=O)OC)=C(N)N(NC(=O)c3ccncc3)C3=C2C(=O)CCC3)cc2cc(C)ccc21 (stereo unspecified)	500 mg/L	500 mg/L	58%	62.5 mg/L	250 mg/L	> 1000 mg/L	500 mg/L	500 mg/L	100 mg/L
C=CCn1c(=O)c(C2C(C(=O)OC(C)C)=C(N)N(NC(=O)c3ccncc3)C3=C2C(=O)CCC3)cc2cc(Cl)ccc21 (stereo unspecified)	200 mg/L	500 mg/L	89%	200 mg/L	500 mg/L	500 mg/L	200 mg/L	250 mg/L	200 mg/L
C=CCn1c(=O)c(C2C(C(=O)OC(C)C)=C(N)N(NC(=O)c3ccncc3)C3=C2C(=O)CC(C)(C)C3)cc2cc(OC)ccc21 (stereo unspecified)	500 mg/L	1000 mg/L	74%	250 mg/L	250 mg/L	500 mg/L	500 mg/L	200 mg/L	250 mg/L
O=C(O)c1cn(C2CC2)c2cc(N3CCNCC3)c(F)cc2c1=O [CIPROFLOXACIN]	50 mg/L	–	–	–	25 mg/L	–	–	25 mg/L	–
C=CCn1c(=O)c(C2C(C(=O)OC)=C(N)N(NC(=O)c3ccncc3)C3=C2C(=O)CC(C)(C)C3)cc2ccccc21 (stereo unspecified)	200 mg/L	250 mg/L	74%	125 mg/L	200 mg/L	> 1000 mg/L	200 mg/L	200 mg/L	125 mg/L
NYSTATIN	–	100 mg/L	–	–	–	100 mg/L	–	–	–
C=CCn1c(=O)c(C2C(C(=O)OC(C)C)=C(N)N(NC(=O)c3ccncc3)C3=C2C(=O)CCC3)cc2cc(C)ccc21 (stereo unspecified)	500 mg/L	1000 mg/L	22%	500 mg/L	200 mg/L	1000 mg/L	500 mg/L	250 mg/L	500 mg/L
C=CCn1c(=O)c(C2C(C(=O)OC)=C(N)N(NC(=O)c3ccncc3)C3=C2C(=O)CC(C)(C)C3)cc2cc(Cl)ccc21 (stereo unspecified)	200 mg/L	500 mg/L	87%	500 mg/L	200 mg/L	1000 mg/L	100 mg/L	250 mg/L	500 mg/L
C=CCn1c(=O)c(C2C(C(=O)OCC)=C(N)N(NC(=O)c3ccncc3)C3=C2C(=O)CCC3)cc2cc(OC)ccc21 (stereo unspecified)	125 mg/L	250 mg/L	54%	200 mg/L	500 mg/L	1000 mg/L	100 mg/L	250 mg/L	200 mg/L
C=CCn1c(=O)c(C2C(C(=O)OC)=C(N)N(NC(=O)c3ccncc3)C3=C2C(=O)CC(C)(C)C3)cc2cc(OC)ccc21 (stereo unspecified)	250 mg/L	1000 mg/L	45%	250 mg/L	200 mg/L	500 mg/L	200 mg/L	200 mg/L	250 mg/L
O=C(N[C@H](CO)[C@H](O)c1ccc([N+](=O)[O-])cc1)C(Cl)Cl [CHLORAMPHENICOL]	50 mg/L	–	–	50 mg/L	50 mg/L	–	50 mg/L	50 mg/L	50 mg/L
CCn1cc(C(=O)O)c(=O)c2cc(F)c(N3CCNCC3)cc21 [NORFLOXACIN]	10 mg/L	–	–	100 mg/L	10 mg/L	–	50 mg/L	10 mg/L	10 mg/L
C=CCn1c(=O)c(C2C(C(=O)OC(C)C)=C(N)N(NC(=O)c3ccncc3)C3=C2C(=O)CCC3)cc2cc(OC)ccc21 (stereo unspecified)	250 mg/L	250 mg/L	27%	250 mg/L	250 mg/L	1000 mg/L	250 mg/L	200 mg/L	250 mg/L
